Measurements taken from ChEMBL document CHEMBL2169807, “Analysis of the structural and mechanistic factors in antioxidants that preserve mitochondrial function and confer cytoprotection” (Bioorg Med Chem, 2012).
Calls of active or inactive are those of the source. The calls are words filed in the database; no cut-off is given here.

Experiments:
[1] = species: Bos taurus; assay: Inhibition of NADH oxidase activity in bovine heart sub-mitochondrial particles assessed as remaining enzyme activity at 1 uM by spectrophotometry relative to untreated control
[2] = species: Bos taurus; assay: Inhibition of NADH oxidase activity in bovine heart sub-mitochondrial particles assessed as remaining enzyme activity at 5 uM by spectrophotometry relative to untreated control
[3] = tested on: CCRF-CEM; assay: Cytoprotection in diethyl maleate-treated human CCRF-CEM cells 2.5 uM incubated for 17 hrs before diethyl maleate challenge by trypan blue dye exclusion method (reference value: 18 +/- 10%); assay type: functional
[4] = tested on: CCRF-CEM; assay: Cytoprotection in diethyl maleate-treated human CCRF-CEM cells 0.5 uM incubated for 17 hrs before diethyl maleate challenge by trypan blue dye exclusion method (reference value: 18 +/- 10%); assay type: functional
[5] = tested on: CCRF-CEM; assay: Cytoprotection in diethyl maleate-treated human CCRF-CEM cells 0.1 uM incubated for 17 hrs before diethyl maleate challenge by trypan blue dye exclusion method (reference value: 18 +/- 10%); assay type: functional
[6] = species: Homo sapiens; assay: Preservation of mitochondrial membrane potential in diethyl maleate-treated human Friedreich's ataxia lymphocytes at 2.5 uM pre-incubated for 16 hrs before diethyl maleate challenge by FACS method (reference value: 25%); assay type: functional
[7] = species: Homo sapiens; assay: Preservation of mitochondrial membrane potential in diethyl maleate-treated human Friedreich's ataxia lymphocytes at 1 uM pre-incubated for 16 hrs before diethyl maleate challenge by FACS method (reference value: 25%); assay type: functional
[8] = species: Homo sapiens; assay: Preservation of mitochondrial membrane potential in diethyl maleate-treated human Friedreich's ataxia lymphocytes at 0.5 uM pre-incubated for 16 hrs before diethyl maleate challenge by FACS method (reference value: 25%); assay type: functional
[9] = species: Homo sapiens; assay: Inhibition of lipid peroxidation in diethyl maleate-treated human Friedreich's ataxia lymphocytes at 5 uM pre-incubated for 16 hrs before diethyl maleate challenge by FACS method relative to untreated control; assay type: functional
[10] = species: Homo sapiens; assay: Inhibition of lipid peroxidation in diethyl maleate-treated human Friedreich's ataxia lymphocytes at 2.5 uM pre-incubated for 16 hrs before diethyl maleate challenge by FACS method relative to untreated control; assay type: functional
[11] = species: Bos taurus; assay: Inhibition of NADH oxidase activity in bovine heart sub-mitochondrial particles assessed as remaining enzyme activity at 10 uM by spectrophotometry relative to untreated control
[12] = tested on: CCRF-CEM; assay: Inhibition of diethyl maleate-induced ROS production in human CCRF-CEM cells at 0.25 to 2.5 uM incubated for 16 hrs by DCFH-DA dye staining based FACS method; assay type: functional, cell-based
[13] = Cytoprotection in diethyl maleate-treated human Friedreich's ataxia lymphocytes incubated for 17 hrs before diethyl maleate challenge by trypan blue dye exclusion method; assay type: functional

| SMILES | Activity [1] | Activity [2] | Activity [3] | Activity [4] | Activity [5] | Activity [6] | Activity [7] | Activity [8] | inhibition [9] | inhibition [10] | Activity [11] | inhibition [12] | EC50 [13] |
| --- | --- | --- | --- | --- | --- | --- | --- | --- | --- | --- | --- | --- | --- |
| Cc1cc(-n2c(C)ccc2C)nc(CCCCCCCCCCO)c1O | 71% | 49% | 26% | 23% | 18% | 52% | 44% | 35% | 39% | 20% | 43% |  |  |
| Cc1cc(N)nc(CCCCCCCCCCO)c1O | 74% | 52% | 78% | 38% | 28% | 65% | 50% | 42% | 74% | 62% | 48% | Active |  |
| COC1=C(OC)C(=O)C(CCCCCCCCCCO)=C(C)C1=O [IDEBENONE] | 65% | 53% | 88% | 49% | 34% | 75% | 57% | 47% | 77% | 68% | 15% | Active | 730 nM |
| Cc1cc(N(C)C)nc(CCCCCCCCCCO)c1O | 85% | 42% | 94% | 59% | 41% | 73% | 54% | 45% | 82% | 71% | 25% | Active | 840 nM |
| Cc1cc(N2C(C)CCC2C)nc(CCCCCCCCCCO)c1O (stereo unspecified) | 78% | 59% | 93% | 90% | 88% | 83% | 72% | 66% | 97% | 90% | 27% | Dose-dependent effect | 150 nM |
| Cc1c(N(C)C)nc(CCCCCCCCCCO)c(O)c1C | 27% | 9% | 92% | 47% | 42% | 70% | 75% | 60% | 97% | 87% | 6% | Active | 560 nM |
| Cc1cc(N(C)C)nc(C)c1O |  |  |  |  |  |  |  | 29% | 3.9% | 3.5% |  |  |  |
| Cc1nc(N(C)C)nc(CCCCCCCCCCO)c1O | 49% | 26% | 94% | 93% | 76% | 86% | 75% | 68% | 91% | 83% | 22% | Active | 380 nM |
